Article PMC7463913, “The Interaction of Fluorinated Glycomimetics with DC-SIGN: Multiple Binding Modes Disentangled by the Combination of NMR Methods and MD Simulations” (Pharmaceuticals, 2020)
pKd, pKi: −log10 of the molar value.

Key:
[1] = target: T1, DC-SIGN (ECD) (Homo sapiens, UniProt Q9NNX6); experiment: competitive 19F-R2 filtered NMR experiments (spy molecule 6-F-ManαOMe); format: binding; conditions: for weaker ligand relative to best binders (1b, 1c, 1d): fold loss of affinity from KI values; for pKi: non-linear least squares fitting, [6-F-ManαOMe] 400 µM, [DC-SIGN (CRDs)] 10 µM, 298 K, pH 8.0; for loss in affinity versus the trisaccharide 1: fluorinated disaccharides versus 1
T1 construct: DC-SIGN full extracellular domain (ECD, residues 70-404, Thermo Fischer Scientific); made in house
T1 sequence (Q9NNX6 70-404): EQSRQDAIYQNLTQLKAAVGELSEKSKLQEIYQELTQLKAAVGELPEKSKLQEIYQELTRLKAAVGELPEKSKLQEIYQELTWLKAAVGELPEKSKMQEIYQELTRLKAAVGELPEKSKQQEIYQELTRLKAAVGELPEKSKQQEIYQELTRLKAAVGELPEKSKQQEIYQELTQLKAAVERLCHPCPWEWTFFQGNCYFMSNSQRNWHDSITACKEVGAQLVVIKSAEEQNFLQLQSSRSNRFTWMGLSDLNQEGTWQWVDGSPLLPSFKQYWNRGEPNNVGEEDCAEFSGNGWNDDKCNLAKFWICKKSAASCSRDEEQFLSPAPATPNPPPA
Excerpt: In order to gain insights into the effects that the different fluorination patterns may have in the binding event, the affinities of 1b, the natural analogue of 1, as well as 1c and 1d, two partially fluorinated trisaccharides, were also estimated. (Table 2, Figure S1).
(§1) For KD estimation of 6-deoxy-6-F-Man (the spy-molecule), the free evolution delay was set to an optimized value τ=1 ms , after using relaxation dispersion experiments to assure a negligible chemical exchange contribution to R2,obs (Figure S1a). The KI of 1, 1b-d, 2, and 3 with DC-SIGN (ECD) was determined by titration experiments in a competitive fashion. Increasing amounts of the competitor molecules (compounds 1, 1b-d, 2, and 3) were added to a solution mixture of the spy molecule and the protein in each case, calculating the R2,obs of the spy molecule at each competitor concentration while the ratio [Spy-molecule]/[Protein] is fixed (40:1) (Figure S1c).
(§2) 19F-R2 filtered experiments
The KD of compounds 1, 1b-d, 2 and 3 was estimated applying a 19F-R2 filtered approach. 6-F-ManαOMe, which weakly binds to DC-SIGN, was selected as the spy molecule. Relaxation rates R2 were determined employing a CPMG pulse sequence, by fitting the observed 19F signal intensity to the exponential decay curve:
ܫ(ݐ) = ܫ଴݁ି௧ோమ = ܫ଴݁ି௡ଶఛோమ (1) where ܫ(ݐ) refers to intensity at time ݐ, ܫ଴ is intensity at ݐ = 0, and ܴଶ is the transversal relaxation rate (ܴଶ = 1/ܶଶ).
In the limit of fast-exchange where the exchange contribution to the observed transversal relaxation rate ܴଶ,௢௕௦ is insignificant (Figure S1, a)), the following equations apply:
ܴଶ,௢௕௦ = ܴଶ,௙ + ൫ܴଶ,௕ − ܴଶ,௙൯݌௕ (2)
(§3) [ܲ]் + [ܮ]் + ܭ஽ − ඥ([ܲ]் + [ܮ]் + ܭ஽)ଶ − 4[ܲ]்[ܮ]் (3) where [ܲ]் and [ܮ]் are the total protein and ligand concentrarion respectively, [ܴ]ଶ,௙ and [ܴ]ଶ,௕ are the relaxation rates in the free and bound states, ݌௕ is the fraction of bound ligand and ܭ஽ the dissociation constant of the protein-ligand complex. [ܴ]ଶ,௙ of 6-F-ManαOMe was measured in absence of the lectin, and Equation 2 was used to estimate ܭ஽and [ܴ]ଶ,௕ for the […]
Then, ܭூ of compounds 1, 1b-d, 2 and 3 was measured in a competitive manner. ܴଶ,௢௕௦ of 6-F-ManαOMe (spy molecule) in solution with DC-SIGN ECD was monitored at 5 different competitor concentrations ([ܫ]) in each case with a fixed [ܲ]்/[ܮ]் ratio (Figure S1, c)), to derive ܭூ by fitting to Equation 2 with ݌௕ as defined in Equations (4) and (5) (Table 2):
݌௕ = 3ܭ + 2 cos൫ߠൗ ൯ √ܽଶ − 3ܾ − ܽ (4)
ߠ = cos ൬ ଶඥ(௔మିଷ௕)య ൰, ܽ = ܭ஽ + ܭூ + [ܮ]் + [ܫ]் − [ܲ]், ܾ = ([ܫ]் − [ܲ]்)ܭ஽ + ([ܮ]் − [ܲ]்)ܭ஽ + ܭூܭ஽, ܿ = −ܭூܭ஽[ܲ]்
Figure S1. 19F-R2 filtered experiments. a) Relaxation dispersion experiment for 6-F-ManαOMe (the spy molecule). R2,obs of the 19F nucleus is measured for different values of ωCPMG. Ligand and protein sample concentrations were: [6-F-ManαOMe] = 400 µM, [DC-SIGN (CRDs)] = 10 µM (counting concentration of CRDs, i.e, 4 CRDs per DC-SIGN ECD tetramer). For ωCPMG > 1000 s-1, there is virtually negligible exchange contribution to R2. Therefore, all the subsequent R2 filtered experiments were carried out with τCPMG = 1/ωCPMG = 1 ms. b) KD determination of 6-F-ManαOMe with DC-SIGN. R2,obs was measured for increasing amounts of [6-F-ManαOMe]/[DC-SIGN (CRDs)] (blue dots). KD and R2,b were obtained from fitting to Equation 2, which is valid in the fast-exchange regime (Rex = 0) [39a]. The predicted values at each [6-F-ManαOMe]/[DC-SIGN (CRDs)] are shown as red stars for comparison c) Titration curves showing the variation in 19F-R2,obs of the spy molecule 6-F-ManαOMe, when increasing amounts of the competitors (I) 1, 1b-d, 2 and 3 are added to a mixture [6-F-ManαOMe] = 400 µM, [DC-SIGN (CRDs)] = 10 µM. […]

[2] = target: T2, DC-SIGN (ECD tetramer) (Homo sapiens, UniProt Q9NNX6); experiment: 2D-STD-TOCSYreF NMR experiments (binding epitope); conditions: for total relative STD per Man ring: normalized to the global observed STD; for % STD (normalized): normalized to largest STD in each molecule
T2 construct: DC-SIGN full extracellular domain (ECD, residues 70-404, Thermo Fischer Scientific); made in house
T2 sequence (Q9NNX6 70-404): T1 sequence (Q9NNX6 70-404)
Excerpt: The interaction between DC-SIGN and the three Man-based 2-deoxy-fluoro oligosaccharides (Figure 1) was first analyzed using 2D-STD-TOCSYreF experiments (Figure 2). A long TOCSY mixing time (128 ms) was used to extend the polarization to all protons within the same spin system for each Man ring. The enhanced resolution of the 2D-TOCSYreF allowed the assignment of most of the STD NMR cross peaks with high reliability for the three fluorinated compounds (Figure 2 and Table 1). Generally speaking, the inherent loss of sensitivity due to the heteronuclear reF transfer in the 2D-STD-TOCSYreF experiments is overcompensated by the gained spectral dispersion.
Figure 2 2D-TOCSYreF off-resonance spectrum (red) and 2D-STD-TOCSYreF peaks (blue) obtained for 1 (top panel), 2 (central panel) and 3 (bottom panel) in the presence of DC-SIGN. The ^19F NMR frequencies are given in the abscissa axis and the ^1H NMR frequencies in the ordinate axis. The STD cross peaks are shifted to high field in the ^19F frequency to facilitate visual inspection. Every blue cross peak corresponds to the STD NMR intensity of the particular ^1H NMR nucleus in a given monosaccharide, which is encoded by the ^19F frequency. The ligand concentration was 1.4 mM in each case, with 9.14 μM of DC-SIGN tetramer, thus containing four carbohydrate recognition domains (CRD) (ligand/protein-CRD ratio is 38:1). The on-resonance irradiation was set to 0.85 ppm, with a saturation time of 2 s. The relative STD values, shown by colored circles, are obtained from the ratio between the corresponding peaks in the 2D STD-TOCSY-reF and 2D-TOCSYreF off-resonance spectra, and normalized to the largest STD in each molecule. The circles connected by a colored thin line correspond to overlapped signals in the spectrum, so that the STD intensity is shown as ‘spread’ between the corresponding ^1H nuclei (meaning each of these protons may contribute or not to the total STD observed). In this case, the added STD intensity is given. The total relative STD per Man ring for each molecule is also specified with a colored tag, using the same color code as the circles. TEXT PRINTED IN THE PICTURE: 1: % STD (Man II): 44 %; % STD (Man III): 9 %; % STD (Man I): 47 % | 2: % STD (Man III): 11 %; % STD (Man I): 89 % | 3: % STD (Man II): 70 %; % STD (Man III): 30 % DOUBTS OF THE COPYIST ABOUT THIS PICTURE: The percent tags are matched to the Man I/II/III rings by position and colour only. The measure '% STD' is printed only at the colour bar. / The percent tags are relative STD-NMR values per sugar ring (binding epitope), so it is uncertain whether they count as a result or belong to the excluded spectra.
Samples for the 2D STD-TOCSY-reF contained 9.14 µM ECD (tetramer) and 153 eq. of ligand (1.4 mM, the ratio ligand/protein (CRD) is 38:1) in each case. The 2D STD-TOCSY-reF setup consists on a proton saturation transfer scheme (^1Hprotein→^1Hligand-STD) with subsequent evolution through JHH couplings (TOCSY), to finally refocus the STD-edited information in the ^19F dimension (reF). As STD parameters, selective saturation was applied for 2 s using 90º PC9 pulses of 10 ms length, with on-resonance saturation set at 0.85 ppm and off-resonance at 60 ppm. The TOCSY mixing time used was 128 ms, and the corresponding JHF evolution and refocusing delays in the reF module were Δ^H = 10.4 ms and Δ^F = 6 ms, respectively. The relative saturation values (%) were calculated from the ratio between peaks in the 2D STD-TOCSY-reF spectrum and the corresponding ones in the off-resonance TOCSY-reF spectrum.

[3] = target: T1, DC-SIGN (ECD); experiment: 19F-R2 filtered NMR KD determination of the spy molecule; format: binding; conditions: spy molecule with DC-SIGN; fast-exchange regime, τCPMG 1 ms
Experimental: as §1, §2
The KD of compounds 1, 1b-d, 2 and 3 was estimated applying a 19F-R2 filtered approach. […] Relaxation rates R2 were determined employing a CPMG pulse sequence, by fitting the observed 19F signal intensity to the exponential decay curve: […]
as §3

[4] = proton ManI-1, ligand 1.4 mM, 9.14 µM tetramer, 2 s saturation at 0.85 ppm

## CO[C@H]1O[C@H](CO[C@H]2O[C@H](CO)[C@@H](O)[C@H](O)[C@@H]2F)[C@@H](O)[C@H](O[C@H]2O[C@H](CO)[C@@H](O)[C@H](O)[C@@H]2F)[C@@H]1F [compound 1]
[1]; corresponding to the variation in affinity of 1 versus 1b
  binding free energy difference: ca. 1 kcal/mol
[1]
  weaker ligand relative to best binders (1b, 1c, 1d): two-fold weaker
  pKi: 2.60
[1]; trifluorinated 1 versus 1b
  variation in binding affinity: 2.5 fold
[2]; Man I ring
  total relative STD per Man ring: 47%
[2]; Man II ring
  total relative STD per Man ring: 44%
[2]; Man III ring
  total relative STD per Man ring: 9%
[2]; overlapped protons ManII-3/6
  % STD (normalized): 47%
[2]; overlapped protons ManII-4/5
  % STD (normalized): 52%
[2]; overlapped protons ManIII-1/2
  % STD (normalized): 31%
[2]; [4]
  % STD (normalized): 16%
[2]; proton ManI-2
  % STD (normalized): 42%
[2]; proton ManI-3
  % STD (normalized): 100%
[2]; proton ManII-1
  % STD (normalized): 19%
[2]; proton ManII-2
  % STD (normalized): 31%

## CO[C@H]1O[C@H](CO)[C@@H](O)[C@H](O[C@H]2O[C@H](CO)[C@@H](O)[C@H](O)[C@@H]2F)[C@@H]1F [compound 2]
[1]
  loss in affinity versus the trisaccharide 1: ca. four-fold
  weaker ligand relative to best binders (1b, 1c, 1d): nine-
  pKi: 2.02
[2]; Man I ring
  total relative STD per Man ring: 89%
[2]; Man III ring
  total relative STD per Man ring: 11%
[2]; [4]
  % STD (normalized): 15%
[2]; proton ManI-2
  % STD (normalized): 33%
[2]; proton ManI-3
  % STD (normalized): 74%
[2]; proton ManI-4
  % STD (normalized): 100%
[2]; proton ManI-5
  % STD (normalized): 22%
[2]; proton ManIII-1
  % STD (normalized): 17%
[2]; proton ManIII-2
  % STD (normalized): 14%

## CO[C@H]1O[C@H](CO[C@H]2O[C@H](CO)[C@@H](O)[C@H](O)[C@@H]2O)[C@@H](O)[C@H](O[C@H]2O[C@H](CO)[C@@H](O)[C@H](O)[C@@H]2O)[C@@H]1F [1c]
[1]
  pKi: 3.00

## CO[C@H]1O[C@H](CO[C@H]2O[C@H](CO)[C@@H](O)[C@H](O)[C@@H]2O)[C@@H](O)[C@H](O[C@H]2O[C@H](CO)[C@@H](O)[C@H](O)[C@@H]2O)[C@@H]1O [1b, reference compound]
[1]
  pKi: 2.96

## CO[C@H]1O[C@H](CO[C@H]2O[C@H](CO)[C@@H](O)[C@H](O)[C@@H]2O)[C@@H](O)[C@H](O[C@H]2O[C@H](CO)[C@@H](O)[C@H](O)[C@@H]2F)[C@@H]1O [1d]
[1]
  pKi: 2.96

## CO[C@H]1O[C@H](CF)[C@@H](O)[C@H](O)[C@@H]1O [6-F-ManαOMe]
[3]
  pKd: 2.89

## CO[C@H]1O[C@H](CO[C@H]2O[C@H](CO)[C@@H](O)[C@H](O)[C@@H]2F)[C@@H](O)[C@H](O)[C@@H]1F [compound 3]
[1]
  loss in affinity versus the trisaccharide 1: ca. two-fold
  weaker ligand relative to best binders (1b, 1c, 1d): four-fold weaker
  pKi: 2.40
[2]; Man II ring
  total relative STD per Man ring: 70%
[2]; Man III ring
  total relative STD per Man ring: 30%
[2]; overlapped protons ManII-3/6
  % STD (normalized): 86%
[2]; overlapped protons ManII-4/5
  % STD (normalized): 100%
[2]; overlapped protons ManIII-3/4/5/6
  % STD (normalized): 47%
[2]; proton ManII-1
  % STD (normalized): 31%
[2]; proton ManII-2
  % STD (normalized): 45%
[2]; proton ManIII-1
  % STD (normalized): 33%
[2]; proton ManIII-2
  % STD (normalized): 31%
